Laboratory results taken from PubChem BioAssay (NCI).
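Interpolation was linear, between the two tested concentrations surrounding the appropriate level; five concentrations were tested over 48 hours in 96-well plates. GI50 = concentration required for 50% inhibition of growth. Definition used: TGI = concentration required for complete inhibition of growth.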

What was measured:
Assay in all cases: inhibition of tumour cell growth, NCI panel, 48 h
ACHN renal = test system: ACHN renal
M14 melanoma = test system: M14 melanoma
MDA-MB-231 breast = test system: MDA-MB-231 breast
MDA-MB-435 = test system: MDA-MB-435
OVCAR-4 ovarian = test system: OVCAR-4 ovarian
PC-3 prostate = test system: PC-3 prostate
RXF 393 renal = test system: RXF 393 renal
SK-MEL-2 melanoma = test system: SK-MEL-2 melanoma
SK-MEL-28 melanoma = test system: SK-MEL-28 melanoma
SW-620 colon = test system: SW-620 colon

What does the source list for COC(=O)[C@@H]1O[C@]12[C@@H](CO[Si](C)(C)C(C)(C)C)O[C@@H](n1cc(C)c(=O)[nH]c1=O)[C@@H]2O[Si](C)(C)C(C)(C)C?
TGI (ACHN renal): 33 µM; TGI (M14 melanoma): 35.9 µM; TGI (MDA-MB-231 breast): 54.8 µM; TGI (MDA-MB-435): 59.2 µM; TGI (OVCAR-4 ovarian): > 100 µM; TGI (PC-3 prostate): 55.7 µM; TGI (RXF 393 renal): 22.7 µM; TGI (SK-MEL-2 melanoma): 30.1 µM; TGI (SK-MEL-28 melanoma): 38.5 µM; TGI (SW-620 colon): 27.9 µM

c1cc2ccc1CNCCN1CCNCc3ccc(cc3)Oc3ccc(cc3)CNCCN(CCNCc3ccc(cc3)O2)CCNCc2ccc(cc2)Oc2ccc(cc2)CNCC1 was tested. Which GI50 (ACHN renal) did it give?
Its GI50 is 3.88 µM.

And the TGI (ACHN renal)?
The TGI was 15.5 µM.

What about the GI50 (M14 melanoma) of the same compound?
Its GI50 is 1.7 µM.

And the TGI (M14 melanoma)?
Its TGI is 3.38 µM.

What about the GI50 (MDA-MB-231 breast) of the same compound?
Its GI50 is 0.521 µM.

What about the TGI (MDA-MB-231 breast) of the same compound?
Its TGI is 1.75 µM.

What about the GI50 (MDA-MB-435) of the same compound?
The GI50 was 1.36 µM.

And the TGI (MDA-MB-435)?
The TGI was 2.7 µM.

What about the GI50 (OVCAR-4 ovarian) of the same compound?
Its GI50 is 1.79 µM.

What about the TGI (OVCAR-4 ovarian) of the same compound?
Its TGI is 3.34 µM.

And the GI50 (PC-3 prostate)?
Its GI50 is 0.358 µM.

And the TGI (PC-3 prostate)?
The TGI was 1.24 µM.

And the GI50 (RXF 393 renal)?
The GI50 was 1.78 µM.

What about the TGI (RXF 393 renal) of the same compound?
The TGI was 3.72 µM.

And the GI50 (SK-MEL-2 melanoma)?
The GI50 was 1.6 µM.

And the TGI (SK-MEL-2 melanoma)?
The TGI was 3.14 µM.

What about the GI50 (SK-MEL-28 melanoma) of the same compound?
The GI50 was 1.75 µM.

What about the TGI (SK-MEL-28 melanoma) of the same compound?
Its TGI is 3.21 µM.

What about the GI50 (SW-620 colon) of the same compound?
Its GI50 is 1.11 µM.

What about the TGI (SW-620 colon) of the same compound?
Its TGI is 2.63 µM.
